In ChEMBL document CHEMBL4368923 (J Med Chem, 2019):
≈ marks a conversion by molar mass, not a printed value.

How the values were obtained:
[1] = tested on: Human immunodeficiency virus 1; test: Antiviral activity against HIV1 3B infected in human MT4 cells assessed as inhibition of virus-induced cytotoxicity after 5 days by MTT assay; type: functional, organism-based; details: Human immunodeficiency virus 1, 3B, MT4, 120 h
[2] = tested on: Human immunodeficiency virus 1; test: Antiviral activity against HIV1 RES056 harboring reverse transcriptase K103N/Y181C double mutant infected in human MT4 cells assessed as inhibition of virus-induced cytotoxicity after 5 days by MTT assay; type: functional, organism-based; details: Human immunodeficiency virus 1, RES056, MT4, 120 h
[3] = Cytotoxicity against human MT4 cells assessed as reduction in cell viability after 5 days by MTT assay; type: cell-based
[4] = Selectivity index, ratio of CC50 for human MT4 cells to EC50 for HIV1 3B infected in human MT4 cells
[5] = Selectivity index, ratio of CC50 for human MT4 cells to EC50 for HIV1 RES056 harboring reverse transcriptase K103N/Y181C double mutant infected in human MT4 cells
[6] = tested on: Human immunodeficiency virus 1; test: Antiviral activity against HIV1 harboring reverse transcriptase E138K mutant infected in human MT4 cells assessed as inhibition of virus-induced cytotoxicity after 5 days by MTT assay; type: functional, organism-based; details: Human immunodeficiency virus 1, MT4, 120 h
[7] = tested on: Human immunodeficiency virus 1; test: Antiviral activity against HIV1 harboring reverse transcriptase L100I mutant infected in human MT4 cells assessed as inhibition of virus-induced cytotoxicity after 5 days by MTT assay; type: functional, organism-based; details: Human immunodeficiency virus 1, MT4, 120 h
[8] = tested on: Human immunodeficiency virus 1; test: Antiviral activity against HIV1 harboring reverse transcriptase K103N mutant infected in human MT4 cells assessed as inhibition of virus-induced cytotoxicity after 5 days by MTT assay; type: functional, organism-based; details: Human immunodeficiency virus 1, MT4, 120 h
[9] = tested on: Human immunodeficiency virus 1; test: Antiviral activity against HIV1 harboring reverse transcriptase Y181C mutant infected in human MT4 cells assessed as inhibition of virus-induced cytotoxicity after 5 days by MTT assay; type: functional, organism-based; details: Human immunodeficiency virus 1, MT4, 120 h
[10] = tested on: Human immunodeficiency virus 1; test: Antiviral activity against HIV1 harboring reverse transcriptase Y188L mutant infected in human MT4 cells assessed as inhibition of virus-induced cytotoxicity after 5 days by MTT assay; type: functional, organism-based; details: Human immunodeficiency virus 1, MT4, 120 h
[11] = tested on: Human immunodeficiency virus 1; test: Antiviral activity against HIV1 harboring reverse transcriptase F227L/V106A double mutant infected in human MT4 cells assessed as inhibition of virus-induced cytotoxicity after 5 days by MTT assay; type: functional, organism-based; details: Human immunodeficiency virus 1, MT4, 120 h
[12] = biological target: Human immunodeficiency virus type 1 reverse transcriptase (Human immunodeficiency virus 1, UniProt Q72547); test: Inhibition of HIV1 reverse transcriptase p66/p51 using poly(rA)/oligo(dT)16 as template/primer measured after 40 mins by pico-green based spectrofluorometric analysis
[13] = Acute toxicity in Kunming mouse assessed as mortality at 2000 mg/kg, ig measured every day for 1 week; type: organism-based; details: in vivo, po, 168 h
[14] = Acute toxicity in Kunming mouse assessed as lethargy at 2000 mg/kg, ig measured every day for 1 week; type: organism-based; details: in vivo, po, 168 h
[15] = Acute toxicity in Kunming mouse assessed as clonic convulsion at 2000 mg/kg, ig measured every day for 1 week; type: organism-based; details: in vivo, po, 168 h
[16] = Acute toxicity in Kunming mouse assessed as anorexia at 2000 mg/kg, ig measured every day for 1 week; type: organism-based; details: in vivo, po, 168 h
[17] = Acute toxicity in Kunming mouse assessed as ruffled fur at 2000 mg/kg, ig measured every day for 1 week; type: organism-based; details: in vivo, po, 168 h
[18] = Acute toxicity in Kunming mouse assessed as effect on body weight at 2000 mg/kg, ig measured every day for 1 week; type: organism-based; details: in vivo, po, 168 h
[19] = Subacute toxicity in Kunming mouse assessed as mortality at 50 mg/kg, po dosed once every other day for 14 days; type: organism-based; details: in vivo, 336 h
[20] = Subacute toxicity in Kunming mouse assessed as lethargy at 50 mg/kg, po dosed once every other day for 14 days; type: organism-based; details: in vivo, 336 h
[21] = Subacute toxicity in Kunming mouse assessed as clonic convulsion at 50 mg/kg, po dosed once every other day for 14 days; type: organism-based; details: in vivo, 336 h
[22] = Subacute toxicity in Kunming mouse assessed as anorexia at 50 mg/kg, po dosed once every other day for 14 days; type: organism-based; details: in vivo, 336 h
[23] = Subacute toxicity in Kunming mouse assessed as ruffled fur at 50 mg/kg, po dosed once every other day for 14 days; type: organism-based; details: in vivo, 336 h
[24] = Subacute toxicity in Kunming mouse assessed as effect on body weight at 50 mg/kg, po dosed once every other day for 14 days; type: organism-based; details: in vivo, 336 h
[25] = Subacute toxicity in Kunming mouse assessed as pathological damage to heart at 50 mg/kg, po dosed once every other day for 14 days by hematoxylin and eosin staining based assay; type: organism-based; details: in vivo, 336 h
[26] = Subacute toxicity in Kunming mouse assessed as pathological damage to liver at 50 mg/kg, po dosed once every other day for 14 days by hematoxylin and eosin staining based assay; type: organism-based; details: in vivo, 336 h
[27] = Subacute toxicity in Kunming mouse assessed as pathological damage to spleen at 50 mg/kg, po dosed once every other day for 14 days by hematoxylin and eosin staining based assay; type: organism-based; details: in vivo, 336 h
[28] = Subacute toxicity in Kunming mouse assessed as pathological damage to lungs at 50 mg/kg, po dosed once every other day for 14 days by hematoxylin and eosin staining based assay; type: organism-based; details: in vivo, 336 h
[29] = Subacute toxicity in Kunming mouse assessed as pathological damage to kidneys at 50 mg/kg, po dosed once every other day for 14 days by hematoxylin and eosin staining based assay; type: organism-based; details: in vivo, 336 h
[30] = Acute toxicity in Kunming mouse assessed as effect on animal growth at 2000 mg/kg, ig measured every day for 1 week; type: organism-based; details: in vivo, po, 168 h
[31] = Solubility of the compound in deionized water at pH 7
[32] = Solubility in water at pH 7; type: physicochemical

Row | SMILES | EC50 ([1]; read-out: EC50) [nM] | EC50 ([1]; read-out: pEC50 (converted)) [nM] | EC50 [2] [nM] | CC50 at 120 h [3] [nM] | selectivity ratio ([4]; MT4 cells) | selectivity ratio ([5]; MT4 cells) | EC50 [6] [nM] | EC50 [7] [nM] | EC50 [8] [nM] | EC50 [9] [nM] | EC50 [10] [nM] | EC50 [11] [nM] | IC50 [12] [nM] | other results
1 | Cc1cc(C#N)cc(C)c1Oc1ccnc(Nc2ccc(CN3CCC(NS(N)(=O)=O)CC3)cc2)n1 | 92 | 91.2 | > 3720 | 3720 | 40 | < 1 | 450 | 2150 | 500 | 6540 | > 6970 | ≥ 6820 | 152 | –
2 | Cc1cc(/C=C/C#N)cc(C)c1Oc1ccnc(Nc2ccc(CN3CCC(NS(C)(=O)=O)CC3)cc2)n1 | 6.9 | 6.92 | > 6990 | 6990 | 1020 | < 1 | 36 | 130 | 25 | 330 | 8350 | 470 | 76 | –
3 | Cc1cc(C)c(Oc2nc(N)nc(Nc3ccc(CN4CCOCC4)cc3)n2)c(C)c1 | 120 | 120 | > 12900 | ≥ 12900 | ≥ 105 | 1 | – | – | – | – | – | – | 442 | –
4 | Cc1cc(C#N)cc(C)c1Oc1ccnc(Nc2ccc(CNC3CCN(C(=O)OC(C)(C)C)CC3)cc2)n1 | 190 | 191 | > 3510 | 3510 | 19 | < 1 | – | – | – | – | – | – | 277 | –
5 | Cc1cc(/C=C/C#N)cc(C)c1Oc1ccnc(Nc2ccc(CN3CCC(NC(=O)OC(C)(C)C)CC3)cc2)n1 | 26 | 25.7 | > 3550 | 3550 | 138 | < 1 | 150 | 280 | 68 | 570 | > 4270 | ≥ 1140 | 499 | –
6 | Cc1cc(C#N)cc(C)c1Oc1ccnc(Nc2ccc(CN3CCC(NC(=O)OC(C)(C)C)CC3)cc2)n1 | 200 | 200 | > 4340 | 4340 | 21 | < 1 | – | – | – | – | – | – | 413 | –
7 | Cc1cc(/C=C/C#N)cc(C)c1Oc1ccnc(Nc2ccc(CN3CCN(C(=O)OC(C)(C)C)CC3)cc2)n1 | 15 | 15.1 | > 3040 | 3040 | 209 | < 1 | 130 | 200 | 20 | 420 | > 4030 | 150 | 297 | –
8 | Cc1cc(/C=C/C#N)cc(C)c1Oc1ccnc(Nc2ccc(CN3CCN(S(C)(=O)=O)CC3)cc2)n1 | 3.5 | 3.47 | 790 | ≥ 173000 | – | – | 7.5 | 10 | 3.6 | 25 | 1620 | 110 | 67 | Activity [13]: Non-Toxic; Activity [14]: Non-Toxic; Activity [15]: Non-Toxic; Activity [16]: Non-Toxic; Activity [17]: Non-Toxic; Activity [18]: Non-Toxic; Activity [19]: Non-Toxic; Activity [20]: Non-Toxic; Activity [21]: Non-Toxic; Activity [22]: Non-Toxic; Activity [23]: Non-Toxic; Activity [24]: Non-Toxic; Activity [25]: Non-Toxic; Activity [26]: Non-Toxic; Activity [27]: Non-Toxic; Activity [28]: Non-Toxic; Activity [29]: Non-Toxic; Activity [30]: Non-Toxic
9 | Cc1cc(C#N)cc(C)c1Oc1ccnc(Nc2ccc(CN3CCN(S(C)(=O)=O)CC3)cc2)n1 | 7.2 | 7.24 | > 3430 | 3430 | 475 | < 1 | 89 | 110 | 230 | 470 | > 5220 | 1030 | 49 | –
10 | Cc1cc(C#N)cc(C)c1Oc1ccnc(Nc2ccc(CN3CCOCC3)cc2)n1 | 11 | 11 | > 23000 | 23000 | 2040 | < 1 | 140 | 410 | 68 | 910 | 4930 | 1800 | 42 | solubility [31]: 33.4 µg/mL (≈ 80.4 µM)
11 | Cc1cc(C#N)cc(C)c1Oc1nc(Nc2ccc(C#N)cc2)nc(N)c1Br [ETRAVIRINE] | 3.5 | 3.47 | 50 | > 4590 | – | – | – | 7.4 | 3.9 | 21 | 27 | 26 | – | solubility [31]: < 1 µg/mL; solubility [32]: < 1 µg/mL
12 | Cc1cn([C@H]2C[C@H](N=[N+]=[N-])[C@@H](CO)O2)c(=O)[nH]c1=O [ZIDOVUDINE] | – | – | 15 | > 7480 | – | – | 14 | 3.6 | 11 | 5.6 | 5.1 | 6.2 | – | selectivity ratio [4]: > 704; selectivity ratio [5]: > 515
13 | Nc1ccn([C@@H]2CS[C@H](CO)O2)c(=O)n1 [LAMIVUDINE] | 6410 | – | – | > 87200 | > 14 | – | – | – | – | – | – | – | – | –
14 | Cc1ccnc2c1NC(=O)c1cccnc1N2C1CC1 [NEVIRAPINE] | 240 | 240 | > 15000 | > 15000 | – | – | – | 1640 | 10900 | > 15000 | > 15000 | > 15000 | – | –
15 | O=C1Nc2ccc(Cl)cc2[C@@](C#CC2CC2)(C(F)(F)F)O1 [EFAVIRENZ] | – | – | 240 | > 6340 | – | – | 6 | 52 | 89 | – | 240 | 270 | – | –
16 | Cc1cc(C#N)cc(C)c1Oc1cc(Cl)nc(Nc2ccc(CN3CCOCC3)cc2)c1 | 930 | – | > 6900 | – | 7 | < 1 | – | – | – | – | – | – | – | –
17 | Cc1cc(/C=C/C#N)cc(C)c1Nc1ccnc(Nc2ccc(C#N)cc2)n1 [RILPIVIRINE] | 1.3 | 1.29 | – | 4380 | – | – | – | – | – | – | – | – | – | –
18 | Cc1cc(C#N)cc(C)c1Oc1ccnc(Nc2ccc(CN3CCC(NS(C)(=O)=O)CC3)cc2)n1 | 55 | 55 | > 18100 | 18100 | 331 | < 1 | 380 | 700 | 460 | 2600 | ≥ 7800 | 3230 | 79 | –
